For orientation: IC50 means the midpoint of a concentration-inhibition curve.

Molecules are shown by their SMILES. Where only a bound is given, the exact number is not on record here.

The target of assay [1] is T1, hTRPA1 (Homo sapiens, UniProt O75762, K186N).
T1 construct: expressed in transfected cells; host or cells: HEK293/TREx (Invitrogen), induced with tetracycline
Nature of the assay: High throughput Ca2+ fluorescence (Fluo4) assay, AITC stimulation. The assay is classed as cell-based. In short, it runs like this: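 Read-out is Fluo4 fluorescence, proportional to [Ca2+]i, over ~3 min after AITC challenge, following 2 min compound pre-exposure in HEK293/TREx cells induced with 1 μg/ml tetracycline. Dye: 1 μM, 60 min, room temperature.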

Assay [2] has as its target T1, hTRPA1. Nature of the assay: TRPA1 patch clamp (perforated patch, AITC-activated current). It counts as cell-based. An excerpt: Patch clamp experiments permit the detection of currents through the TRPA1 channel in the cell line described above. To permit recording of current at a stable level and prevent the “rundown” observed by other labs, it is necessary to use the perforated patch technique, which prevents dialysis of the cytoplasm with the pipette solution. In normal whole-cell patch clamp recordings, a glass electrode is brought into contact with a single cell and a high-resistance (gigaohm) seal is established with the cell membrane. The membrane is then ruptured to achieve the whole-cell configuration, permitting control of the voltage of the cell membrane and measurement of currents flowing across the membrane using the amplifier attached to the electrode and resulting in the replacement of cytoplasm with the pipette solution. In contrast, in the perforated patch mode, an antibiotic, amphotericin, is present in the pipette solution and diffuses into contact with the cell after the seal is achieved, over the course of several minutes. The amphotericin forms ion-permeable pores in the membrane under the pipette, permitting passage of some ions but maintaining most native cytosolic components. A perfusion system permits control of the extracellular solution, including the addition of blockers and activators of the current. The current can be activated by addition of 5 μM AITC to the solution. […] In some cases, cells were grown in low density overnight on glass coverslips. Patch clamp recordings were made in the whole-cell mode with a holding potential of −40 mV. Every 5 seconds, a voltage ramp was applied from −120 to +100 mV, 400 ms in duration. Currents elicited were quantified at −80 mV and +80 mV. […] The external solution consisted of 150 mM NaCl, 4.5 mM KCl, 3 mM MgCl2, 10 mM HEPES, […], 1 mM EGTA, pH 7.4. Upon addition of AITC, TRPA1 current was induced only in TRPA1-expressing cells and not in parental HEK293 TREx cells. Removal of the AITC stimulus causes most of the current to go away. Potential blockers were tested for ability to block both inward and outward currents in the continued presence of AITC.
On the technique in general: The patch-clamp technique gives a direct electrical read-out from membranes.

[3] abbreviates: Table 2, read-out: hTRPA1 Fluor IC50.
[4] abbreviates: Table 2, inward current, read-out: hTRPA1 Patch Inwd IC50.
Where [5] appears, read: Table 1, read-out: hTRPA1 Fluo4 IC50.
Where [6] appears, read: Table 1, read-out: hTRPA1 Patch IC50.

T1 sequence (O75762 whole entry K186N): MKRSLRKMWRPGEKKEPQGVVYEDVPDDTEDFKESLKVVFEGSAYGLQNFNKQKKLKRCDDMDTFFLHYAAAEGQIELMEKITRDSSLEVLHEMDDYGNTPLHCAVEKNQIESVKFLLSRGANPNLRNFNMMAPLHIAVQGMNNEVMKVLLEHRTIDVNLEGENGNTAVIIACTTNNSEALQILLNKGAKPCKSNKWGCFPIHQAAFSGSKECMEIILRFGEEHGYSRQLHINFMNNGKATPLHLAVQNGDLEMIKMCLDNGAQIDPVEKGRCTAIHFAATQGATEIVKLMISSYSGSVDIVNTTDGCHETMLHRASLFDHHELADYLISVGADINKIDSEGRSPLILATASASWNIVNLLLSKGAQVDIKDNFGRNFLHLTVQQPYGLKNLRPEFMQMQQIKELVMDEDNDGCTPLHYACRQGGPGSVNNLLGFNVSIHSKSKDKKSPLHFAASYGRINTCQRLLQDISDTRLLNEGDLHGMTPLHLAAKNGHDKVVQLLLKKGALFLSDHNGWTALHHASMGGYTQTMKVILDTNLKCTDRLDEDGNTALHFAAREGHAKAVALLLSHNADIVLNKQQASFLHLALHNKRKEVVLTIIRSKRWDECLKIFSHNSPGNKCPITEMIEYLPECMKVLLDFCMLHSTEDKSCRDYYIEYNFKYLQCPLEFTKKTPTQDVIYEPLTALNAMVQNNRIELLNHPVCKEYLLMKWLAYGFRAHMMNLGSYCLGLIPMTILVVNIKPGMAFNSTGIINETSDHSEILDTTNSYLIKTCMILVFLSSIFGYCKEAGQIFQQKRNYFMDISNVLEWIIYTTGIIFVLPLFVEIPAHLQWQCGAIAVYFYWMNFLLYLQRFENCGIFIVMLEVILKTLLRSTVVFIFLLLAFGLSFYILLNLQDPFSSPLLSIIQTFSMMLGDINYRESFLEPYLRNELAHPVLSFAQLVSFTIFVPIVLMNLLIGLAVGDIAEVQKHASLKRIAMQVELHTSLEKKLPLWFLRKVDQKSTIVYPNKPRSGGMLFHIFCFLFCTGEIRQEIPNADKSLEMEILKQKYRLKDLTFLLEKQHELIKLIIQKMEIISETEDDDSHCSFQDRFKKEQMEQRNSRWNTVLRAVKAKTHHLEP

Turning to `Cn1c(=O)c2c(ncn2CC(=O)NC(c2ccccc2)c2ccccc2)n(C)c1=O` [Compound 203], the concentration for half-maximal inhibition (IC50) is above 10 µM at hTRPA1 [1] (setting [3]) and above 10000 nM on hTRPA1 [2] (setting [4]).
As for `CCOC(=O)C1=C(C)NC(=S)NC1c1ccccc1C` (centres unmarked), the IC50 at hTRPA1 [1] (setting [5]) was at most 5 µM; at hTRPA1 [2] (setting [6]) it was at most 5000 nM.
Take `Cc1ccc(F)cc1NC(=O)Cn1cnc2c1c(=O)n(C)c(=O)n2C` [Compound 277]: the IC50 on hTRPA1 [1] (setting [3]) was above 10 µM; on hTRPA1 [2] (setting [4]), at most 10000 nM.
Take `C=CCOc1cccc(C2NC(=S)NC(C)=C2C(=O)OCC)c1` (centres unmarked): the IC50 is at most 5 µM on hTRPA1 [1] (setting [5]) and at most 1000 nM at hTRPA1 [2] (setting [6]).
Take `Cn1c(=O)c2c(ncn2CC(=O)Nc2ccc3c(c2)OC2(CCCC2)O3)n(C)c1=O` [Compound 344]: the values for the IC50 at hTRPA1 [1] (setting [3]) and at hTRPA1 [2] (setting [4]) were at most 5 µM and at most 5000 nM, respectively.
For the molecule `Cc1ccc(Oc2ccc(NC(=O)Cn3cnc4c3c(=O)n(C)c(=O)n4C)cc2)cc1` [Compound 266], the IC50 at hTRPA1 [1] (setting [3]) was at most 5 µM; on hTRPA1 [2] (setting [4]) it was at most 500 nM.
In the same order, the values of `COc1cc([N+](=O)[O-])ccc1NC(=O)Cn1cnc2c1c(=O)n(C)c(=O)n2C` [Compound 229] are at most 5 µM and at most 1000 nM.
For the molecule `Cn1c(=O)c2c(ncn2CC(=O)Nc2ccc(C34CC5CC(CC(C5)C3)C4)cc2)n(C)c1=O` [Compound 264], the IC50 on hTRPA1 [1] (setting [3]) was at most 5 µM; on hTRPA1 [2] (setting [4]) it was at most 500 nM.
In the case of `CCOC(=O)C1=C(C)NC(=S)NC1c1cccc(OC)c1` (centres unmarked), the IC50 at hTRPA1 [1] (setting [5]) was at most 5 µM; on hTRPA1 [2] (hTRPA1 Patch IC50 (nM), Table 1), at most 10000 nM.
In the case of `CCCCc1ccc2nc(NC(=O)Cn3cnc4c3c(=O)n(C)c(=O)n4C)sc2c1` [Compound 269], the figures for the IC50 at hTRPA1 [1] (setting [3]) and on hTRPA1 [2] (setting [4]) were at most 5 µM and at most 1000 nM, respectively.
`COC(=O)C1=C(C)N(C)C(=O)NC1c1cc(O)ccc1Br` (centres unmarked): the IC50 on hTRPA1 [1] (setting [5]) is at most 5 µM; at hTRPA1 [2] (setting [6]), at most 5000 nM.
With `COc1ccc(CCNC(=O)Cn2cnc3c2c(=O)n(C)c(=O)n3C)cc1` [Compound 261, 2-(1,3-Dimethyl-2,6-dioxo-1,2,3,6-tetrahydropurin-7-yl)-N-[2-(4-methoxy-phenyl)-ethyl]-acetamide], the IC50 on hTRPA1 [1] (setting [3]) is at most 5 µM; on hTRPA1 [2] (setting [4]), at most 5000 nM.
Turning to `CCOc1ccc(C2NC(=S)NC(C)=C2C(=O)OC)cc1` (centres unmarked), the IC50 is at most 5 µM at hTRPA1 [1] (setting [5]) and at most 10000 nM at hTRPA1 [2] (setting [6]).
Take `CN(C)c1ccc(NC(=O)Cn2cnc3c2c(=O)n(C)c(=O)n3C)cc1` [Compound 201]: the IC50 on hTRPA1 [1] (setting [3]) was at least 20 µM; on hTRPA1 [2] (setting [4]), above 10000 nM.
The corresponding values for `Cn1c(=O)c2c(ncn2CC(=O)Nc2ccc3ccccc3c2)n(C)c1=O` [Compound 213] are at most 10 µM and above 10000 nM.
Take `COC(=O)C1=C(C)N(C)C(=O)NC1c1ccc(F)c(F)c1` (centres unmarked): the IC50 was at most 5 µM on hTRPA1 [1] (setting [5]) and at most 1000 nM at hTRPA1 [2] (setting [6]).
Turning to `Cn1c(=O)c2c(ncn2CC(=O)Nc2ccc(SC(F)F)cc2)n(C)c1=O` [Compound 257], the IC50 at hTRPA1 [1] (setting [3]) is at most 1 µM; on hTRPA1 [2] (setting [4]), at most 1000 nM.
With `COC(=O)C1=C(c2ccccc2)NC(=S)NC1c1ccccc1` (centres unmarked), the IC50 was at most 5 µM at hTRPA1 [1] (setting [5]) and at most 5000 nM at hTRPA1 [2] (setting [6]).
In the case of `Cc1ccc(NC(=O)C(C)n2cnc3c2c(=O)n(C)c(=O)n3C)cc1` (centres unmarked) [Compound 315], the values for the half-maximal inhibitory concentration (IC50) on hTRPA1 [1] (setting [3]) and on hTRPA1 [2] (setting [4]) were above 10 µM and at most 1000 nM, respectively.
Turning to `CCOC(=O)C1=C(c2ccccc2)NC(=S)NC1c1cc(C)ccc1C` (centres unmarked), the values for the 50% inhibitory concentration (IC50) on hTRPA1 [1] (setting [5]) and at hTRPA1 [2] (setting [6]) were above 10 µM and above 10000 nM, respectively.
Regarding `Cn1c(=O)c2c(ncn2CC(=O)Nc2ccccc2N2CCCC2)n(C)c1=O` [Compound 350], the IC50 was above 10 µM on hTRPA1 [1] (setting [3]) and above 10000 nM at hTRPA1 [2] (setting [4]).
Turning to `Cn1c(=O)c2c(ncn2CC(=O)Nc2ccc3c(c2)OCO3)n(C)c1=O` [Compound 237], the IC50 is above 10 µM on hTRPA1 [1] (setting [3]) and at most 10000 nM on hTRPA1 [2] (setting [4]).
In the same order, the values of `Cn1c(=O)c2c(ncn2CC(=O)Nc2ccc(Br)cc2F)n(C)c1=O` [Compound 371] are at most 5 µM and at most 5000 nM.
The corresponding values for `Cc1ccc2nc(NC(=O)Cn3cnc4c3c(=O)n(C)c(=O)n4C)sc2c1` [Compound 233] are at most 5 µM and at most 5000 nM.
On to `COC(=O)C1=C(C)N(C)C(=O)NC1c1ccc(O)c(Cl)c1` (centres unmarked), for which the IC50 at hTRPA1 [1] (setting [5]) is at most 5 µM; at hTRPA1 [2] (setting [6]) it was above 10000 nM.

The record behind these values is patent US7671061B2, “Methods and compositions for treating pain” (Hydra Biosciences, Inc., priority 2005, dated 2010).
